In US20140120166A1, “COMPOSITION OF ENTACOPONE” (INNOPHARMAX, INC., priority 2011, published 2014):

Assay: Dissolution test (FDA dissolution method for entacapone, USP paddle apparatus, HPLC analysis)
Assay type: physicochemical
Conditions: USP standard paddle stirring apparatus, 50 rpm, 900 mL pH 5.5 phosphate buffer solution, 120 minutes
Procedure: The dissolution test was conducted according to the drug dissolution method for entacapone obtained by searching the Dissolution Methods Database provided on the FDA website (http://www.accessdata.fda.gov/scripts/cder/dissolution/dsp_Search Results_Dissolutions.cfm). The dissolution test was carried out using a USP standard paddle stirring apparatus with a rotation speed of 50 rpm. The solvent used was 900 mL pH 5.5 phosphate buffer solution and the period of test was 120 minutes.

Dissolution Rate (%): about 81.15%
Compound: CCN(CC)C(=O)/C(C#N)=C/c1cc(O)c(O)c([N+](=O)[O-])c1 [entacapone, (E)-2-cyano-3-(3,4-dihydroxy-5-nitro-phenyl)-N,N-diethyl-2-propenamide]
